Source: ChEMBL document CHEMBL1201862, “PubChem BioAssay data set” (2004)
The source made the active and inactive calls.

What was measured:
[1] = target: T1, Eukaryotic translation initiation factor 2-alpha kinase 3 (Homo sapiens, UniProt Q9NZJ5); test: Dose response cell-based high-throughput screening assay to measure PERK inhibition. [Related pubchem assays: 1416 ]; format: functional
T1 sequence (Q9NZJ5 whole entry): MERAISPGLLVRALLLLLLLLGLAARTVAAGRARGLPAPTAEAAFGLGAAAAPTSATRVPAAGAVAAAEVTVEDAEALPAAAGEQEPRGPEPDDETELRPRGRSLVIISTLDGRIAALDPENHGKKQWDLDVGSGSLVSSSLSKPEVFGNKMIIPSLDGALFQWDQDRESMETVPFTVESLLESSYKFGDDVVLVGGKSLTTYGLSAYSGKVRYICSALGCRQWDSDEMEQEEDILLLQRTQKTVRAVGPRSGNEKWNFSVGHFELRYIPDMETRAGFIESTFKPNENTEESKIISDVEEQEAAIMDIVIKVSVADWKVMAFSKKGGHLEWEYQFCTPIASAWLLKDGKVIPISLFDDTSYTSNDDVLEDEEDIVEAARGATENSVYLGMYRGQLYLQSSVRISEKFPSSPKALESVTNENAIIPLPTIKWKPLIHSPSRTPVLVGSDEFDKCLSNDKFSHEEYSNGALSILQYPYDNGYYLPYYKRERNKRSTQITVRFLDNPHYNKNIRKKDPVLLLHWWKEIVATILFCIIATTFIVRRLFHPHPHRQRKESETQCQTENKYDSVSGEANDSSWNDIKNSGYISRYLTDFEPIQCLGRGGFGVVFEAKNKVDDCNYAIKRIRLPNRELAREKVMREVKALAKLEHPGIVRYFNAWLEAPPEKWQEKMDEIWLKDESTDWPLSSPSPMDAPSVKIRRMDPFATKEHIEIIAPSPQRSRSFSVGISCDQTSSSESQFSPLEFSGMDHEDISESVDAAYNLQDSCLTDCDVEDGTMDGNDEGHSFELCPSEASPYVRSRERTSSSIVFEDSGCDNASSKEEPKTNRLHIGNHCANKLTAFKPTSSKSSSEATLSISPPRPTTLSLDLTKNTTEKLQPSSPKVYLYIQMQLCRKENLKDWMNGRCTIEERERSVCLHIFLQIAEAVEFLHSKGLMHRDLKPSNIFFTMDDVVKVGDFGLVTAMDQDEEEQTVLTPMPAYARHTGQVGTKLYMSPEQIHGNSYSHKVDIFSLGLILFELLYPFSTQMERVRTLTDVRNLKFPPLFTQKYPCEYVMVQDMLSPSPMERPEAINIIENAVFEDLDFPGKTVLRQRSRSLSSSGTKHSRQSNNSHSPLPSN

[2] = target: T1, Eukaryotic translation initiation factor 2-alpha kinase 3; test: Counterscreen assay for PERK inhibitors: Dose response cell-based high throughput screening assay to measure inhibition of PERK at 6 hours. [Related pubchem assays: 1522, 1416 ]; format: functional
[3] = target: DNA dC->dU-editing enzyme APOBEC-3A (Homo sapiens, UniProt P31941); test: APOBEC3A DNA deaminase inhibitors, dose response, biochemical (AID 504722); format: functional
DNA dC->dU-editing enzyme APOBEC-3A, sequence (P31941 whole entry): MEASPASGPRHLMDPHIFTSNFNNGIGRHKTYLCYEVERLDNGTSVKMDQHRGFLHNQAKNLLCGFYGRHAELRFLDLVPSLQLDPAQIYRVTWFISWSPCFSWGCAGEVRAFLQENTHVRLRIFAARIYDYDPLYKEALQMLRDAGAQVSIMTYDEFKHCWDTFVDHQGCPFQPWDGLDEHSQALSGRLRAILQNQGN

[4] = target: DNA dC->dU-editing enzyme APOBEC-3G (Homo sapiens, UniProt Q9HC16); test: Dose Response confirmation of small molecule APOBEC3G DNA Deaminase Inhibitors via a fluorescence-based single-stranded DNA deaminase assay. [Related pubchem assays (depositor defined):AID493012, AID493028]; format: functional
DNA dC->dU-editing enzyme APOBEC-3G, sequence (Q9HC16 whole entry): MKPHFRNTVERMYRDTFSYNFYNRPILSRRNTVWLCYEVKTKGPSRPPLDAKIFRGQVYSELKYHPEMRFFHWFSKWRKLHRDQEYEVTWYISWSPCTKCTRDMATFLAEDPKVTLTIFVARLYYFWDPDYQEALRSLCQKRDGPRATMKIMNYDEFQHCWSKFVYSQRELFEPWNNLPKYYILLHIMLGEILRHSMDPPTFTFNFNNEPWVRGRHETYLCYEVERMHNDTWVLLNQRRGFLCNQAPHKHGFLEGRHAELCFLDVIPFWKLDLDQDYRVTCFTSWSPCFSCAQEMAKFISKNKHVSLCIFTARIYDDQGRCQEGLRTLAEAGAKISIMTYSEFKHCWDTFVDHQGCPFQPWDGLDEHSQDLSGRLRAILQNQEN

[5] = target: T2, CAAX prenyl protease 2 (Saccharomyces cerevisiae S288c, UniProt Q03530); format: biochemical
T2 sequence (Q03530 whole entry): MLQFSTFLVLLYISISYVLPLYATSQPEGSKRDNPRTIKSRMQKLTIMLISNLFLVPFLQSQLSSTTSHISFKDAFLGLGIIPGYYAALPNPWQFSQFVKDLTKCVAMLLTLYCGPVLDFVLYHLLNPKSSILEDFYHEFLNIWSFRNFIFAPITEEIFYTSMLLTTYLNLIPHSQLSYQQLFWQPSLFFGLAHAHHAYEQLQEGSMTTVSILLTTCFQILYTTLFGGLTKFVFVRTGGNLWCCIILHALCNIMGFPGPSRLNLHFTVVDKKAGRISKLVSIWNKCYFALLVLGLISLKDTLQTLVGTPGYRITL

[6] = target: Fatty acid synthase (Homo sapiens, UniProt P49327); test: FAS thioesterase domain inhibitors, dose response, biochemical, kinetic fluorescence intensity (AID 624326); format: functional;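 further: rate of fluorescence rise from hydrolysis of a fluorogenic O-methyl fluorescein ester substrate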
[7] = target: Large T antigen (Simian virus 40, UniProt P03070); format: functional, Betapolyomavirus macacae;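 further: Confirmatory-stage PubChem screen for compounds that inhibit SV40 T antigen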
[8] = target: T3, Rac GTPase-activating protein 1 (Homo sapiens, UniProt Q9H0H5); test: MgcRacGAP GTPase-activating activity inhibitors, confirmation, biochemical, ADP Hunter fluorescence, primary and confirmatory (AID 624330); format: functional
T3 sequence (Q9H0H5 whole entry): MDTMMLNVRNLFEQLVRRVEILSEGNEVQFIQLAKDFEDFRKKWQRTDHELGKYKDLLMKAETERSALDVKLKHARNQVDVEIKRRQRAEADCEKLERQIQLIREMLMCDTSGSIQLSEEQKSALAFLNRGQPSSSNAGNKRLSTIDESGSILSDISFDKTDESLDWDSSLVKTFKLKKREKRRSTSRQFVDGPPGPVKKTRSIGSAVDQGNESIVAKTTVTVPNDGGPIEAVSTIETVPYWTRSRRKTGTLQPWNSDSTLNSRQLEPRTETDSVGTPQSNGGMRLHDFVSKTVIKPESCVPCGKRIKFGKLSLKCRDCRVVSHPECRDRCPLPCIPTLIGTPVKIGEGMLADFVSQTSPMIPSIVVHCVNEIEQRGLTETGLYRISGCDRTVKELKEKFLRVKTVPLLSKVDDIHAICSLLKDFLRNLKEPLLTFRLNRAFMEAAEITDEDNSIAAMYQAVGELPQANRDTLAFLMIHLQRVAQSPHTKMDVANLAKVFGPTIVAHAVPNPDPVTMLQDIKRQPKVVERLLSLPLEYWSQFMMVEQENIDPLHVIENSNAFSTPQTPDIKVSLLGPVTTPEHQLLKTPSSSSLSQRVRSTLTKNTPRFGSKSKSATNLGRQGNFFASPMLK

[9] = target: T4, Voltage-gated N-type calcium channel alpha-1B subunit/Amyloid beta A4 precursor protein-binding family A member 1 (Homo sapiens, UniProt Q00975+Q02410); format: protein assay
T4 sequence (Q00975 whole entry): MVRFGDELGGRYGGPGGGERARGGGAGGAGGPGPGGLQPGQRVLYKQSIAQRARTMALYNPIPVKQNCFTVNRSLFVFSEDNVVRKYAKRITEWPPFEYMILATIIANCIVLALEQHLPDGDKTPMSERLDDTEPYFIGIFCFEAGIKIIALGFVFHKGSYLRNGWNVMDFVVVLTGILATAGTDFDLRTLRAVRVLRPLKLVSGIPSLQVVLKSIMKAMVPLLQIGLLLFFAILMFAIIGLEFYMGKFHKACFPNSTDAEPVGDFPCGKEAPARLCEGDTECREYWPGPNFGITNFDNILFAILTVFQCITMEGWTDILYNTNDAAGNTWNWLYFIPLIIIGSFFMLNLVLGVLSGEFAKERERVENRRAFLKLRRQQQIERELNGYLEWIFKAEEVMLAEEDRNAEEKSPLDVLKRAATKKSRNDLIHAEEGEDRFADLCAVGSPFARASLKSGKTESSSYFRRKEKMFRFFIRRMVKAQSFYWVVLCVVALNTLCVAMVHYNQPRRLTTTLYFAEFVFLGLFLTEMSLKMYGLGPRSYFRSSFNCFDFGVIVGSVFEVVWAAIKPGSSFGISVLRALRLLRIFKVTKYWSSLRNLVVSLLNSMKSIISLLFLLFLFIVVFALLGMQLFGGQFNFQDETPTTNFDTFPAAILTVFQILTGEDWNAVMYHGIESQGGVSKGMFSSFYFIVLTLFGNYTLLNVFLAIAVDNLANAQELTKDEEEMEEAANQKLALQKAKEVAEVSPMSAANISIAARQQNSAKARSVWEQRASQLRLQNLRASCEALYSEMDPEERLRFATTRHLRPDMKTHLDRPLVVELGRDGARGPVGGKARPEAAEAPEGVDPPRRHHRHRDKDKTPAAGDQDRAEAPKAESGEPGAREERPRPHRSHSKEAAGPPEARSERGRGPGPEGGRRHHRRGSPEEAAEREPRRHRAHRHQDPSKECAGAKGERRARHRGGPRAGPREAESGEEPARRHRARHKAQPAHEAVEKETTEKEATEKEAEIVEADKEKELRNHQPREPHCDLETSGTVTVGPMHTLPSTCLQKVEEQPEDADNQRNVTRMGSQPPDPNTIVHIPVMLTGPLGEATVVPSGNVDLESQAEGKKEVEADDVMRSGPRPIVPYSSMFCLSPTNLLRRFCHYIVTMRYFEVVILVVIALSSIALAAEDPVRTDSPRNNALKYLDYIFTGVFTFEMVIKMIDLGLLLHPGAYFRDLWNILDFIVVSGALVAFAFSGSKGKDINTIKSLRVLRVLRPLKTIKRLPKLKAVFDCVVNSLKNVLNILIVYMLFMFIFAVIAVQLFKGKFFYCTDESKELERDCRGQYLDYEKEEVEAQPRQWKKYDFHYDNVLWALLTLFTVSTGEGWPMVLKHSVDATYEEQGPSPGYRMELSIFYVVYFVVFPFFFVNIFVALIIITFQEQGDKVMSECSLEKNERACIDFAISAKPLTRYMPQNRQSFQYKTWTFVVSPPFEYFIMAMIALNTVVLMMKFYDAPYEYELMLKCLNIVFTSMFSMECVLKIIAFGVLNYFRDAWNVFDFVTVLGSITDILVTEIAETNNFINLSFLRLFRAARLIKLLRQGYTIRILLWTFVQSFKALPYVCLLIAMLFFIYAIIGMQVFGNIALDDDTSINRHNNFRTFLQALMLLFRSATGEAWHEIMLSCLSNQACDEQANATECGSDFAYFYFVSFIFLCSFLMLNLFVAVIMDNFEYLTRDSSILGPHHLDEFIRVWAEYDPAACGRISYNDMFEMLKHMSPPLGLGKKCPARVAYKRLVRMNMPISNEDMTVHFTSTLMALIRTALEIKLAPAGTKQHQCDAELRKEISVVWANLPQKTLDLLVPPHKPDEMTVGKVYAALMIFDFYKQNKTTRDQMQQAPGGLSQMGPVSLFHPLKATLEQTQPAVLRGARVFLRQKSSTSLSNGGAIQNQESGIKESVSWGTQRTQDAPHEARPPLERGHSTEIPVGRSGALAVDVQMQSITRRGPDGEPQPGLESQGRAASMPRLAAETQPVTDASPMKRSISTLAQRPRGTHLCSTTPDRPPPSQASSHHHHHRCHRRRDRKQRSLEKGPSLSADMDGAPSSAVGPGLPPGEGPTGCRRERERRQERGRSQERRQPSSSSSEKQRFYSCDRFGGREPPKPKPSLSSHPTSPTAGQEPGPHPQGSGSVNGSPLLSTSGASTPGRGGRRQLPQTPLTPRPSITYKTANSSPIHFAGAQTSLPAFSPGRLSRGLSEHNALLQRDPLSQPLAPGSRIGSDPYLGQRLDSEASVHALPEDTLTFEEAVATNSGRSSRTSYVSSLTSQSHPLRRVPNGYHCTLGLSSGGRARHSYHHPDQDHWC
T4 sequence (Q02410 whole entry): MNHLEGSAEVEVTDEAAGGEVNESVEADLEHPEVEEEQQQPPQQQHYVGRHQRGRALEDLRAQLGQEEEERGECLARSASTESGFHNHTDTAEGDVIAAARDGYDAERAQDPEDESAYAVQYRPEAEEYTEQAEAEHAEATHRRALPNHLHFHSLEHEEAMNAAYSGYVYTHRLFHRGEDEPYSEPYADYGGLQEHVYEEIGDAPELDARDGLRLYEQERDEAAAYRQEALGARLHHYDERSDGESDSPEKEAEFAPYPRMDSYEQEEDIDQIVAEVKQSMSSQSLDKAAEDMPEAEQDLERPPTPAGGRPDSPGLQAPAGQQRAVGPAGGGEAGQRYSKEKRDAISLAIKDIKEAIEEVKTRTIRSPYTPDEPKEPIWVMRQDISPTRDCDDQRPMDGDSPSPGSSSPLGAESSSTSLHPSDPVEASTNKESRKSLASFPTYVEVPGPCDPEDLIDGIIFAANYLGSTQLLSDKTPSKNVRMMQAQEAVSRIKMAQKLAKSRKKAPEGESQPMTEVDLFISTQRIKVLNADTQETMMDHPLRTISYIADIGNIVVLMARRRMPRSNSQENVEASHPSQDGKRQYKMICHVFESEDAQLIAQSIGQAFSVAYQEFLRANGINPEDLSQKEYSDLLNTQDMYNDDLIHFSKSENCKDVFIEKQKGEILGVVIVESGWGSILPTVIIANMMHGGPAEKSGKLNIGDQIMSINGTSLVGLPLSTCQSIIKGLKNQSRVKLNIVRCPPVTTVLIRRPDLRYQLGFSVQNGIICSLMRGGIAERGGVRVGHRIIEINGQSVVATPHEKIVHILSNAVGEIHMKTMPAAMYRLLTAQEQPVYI

[10] = target: T4, Voltage-gated N-type calcium channel alpha-1B subunit/Amyloid beta A4 precursor protein-binding family A member 1; format: protein assay; remark: listed apart in the source
[11] = target: T5, Small ubiquitin-related modifier 1 (Homo sapiens, UniProt P63165); test: inhibitors of SUMO1 peptide binding, dose response, biochemical, fluorescence polarization, uHTS hits (AID 624382); format: functional; conditions: read-out: IC50_Mean
T5 sequence (P63165 whole entry): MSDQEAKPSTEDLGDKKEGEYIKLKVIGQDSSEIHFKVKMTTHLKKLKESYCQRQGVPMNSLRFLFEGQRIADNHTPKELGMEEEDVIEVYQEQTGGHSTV

[12] = target: T5, Small ubiquitin-related modifier 1; test: inhibitors of SUMO1 partner interactions, dose response, biochemical, FRET (AID 624383); format: functional; conditions: read-out: IC50_Mean
[13] = tested on: HEK293; test: NOD1 signaling inhibitors, primary screen, cell-based, luminescence, uHTS (AID 1578); format: functional; conditions: Homo sapiens
[14] = tested on: HEK293; test: cells; format: functional, cell-based; conditions: Homo sapiens
[15] = tested on: HEK293; test: cells; format: functional, cell-based; conditions: Homo sapiens; remark: listed apart in the source
[16] = target: Nucleotide-binding oligomerization domain-containing protein 2 (Homo sapiens, UniProt Q9HC29); test: NOD2 signaling inhibitors, cell-based, luminescence, uHTS, HEK293 (AID 1566); format: functional
Nucleotide-binding oligomerization domain-containing protein 2, sequence (Q9HC29 whole entry, the tested form may be a part): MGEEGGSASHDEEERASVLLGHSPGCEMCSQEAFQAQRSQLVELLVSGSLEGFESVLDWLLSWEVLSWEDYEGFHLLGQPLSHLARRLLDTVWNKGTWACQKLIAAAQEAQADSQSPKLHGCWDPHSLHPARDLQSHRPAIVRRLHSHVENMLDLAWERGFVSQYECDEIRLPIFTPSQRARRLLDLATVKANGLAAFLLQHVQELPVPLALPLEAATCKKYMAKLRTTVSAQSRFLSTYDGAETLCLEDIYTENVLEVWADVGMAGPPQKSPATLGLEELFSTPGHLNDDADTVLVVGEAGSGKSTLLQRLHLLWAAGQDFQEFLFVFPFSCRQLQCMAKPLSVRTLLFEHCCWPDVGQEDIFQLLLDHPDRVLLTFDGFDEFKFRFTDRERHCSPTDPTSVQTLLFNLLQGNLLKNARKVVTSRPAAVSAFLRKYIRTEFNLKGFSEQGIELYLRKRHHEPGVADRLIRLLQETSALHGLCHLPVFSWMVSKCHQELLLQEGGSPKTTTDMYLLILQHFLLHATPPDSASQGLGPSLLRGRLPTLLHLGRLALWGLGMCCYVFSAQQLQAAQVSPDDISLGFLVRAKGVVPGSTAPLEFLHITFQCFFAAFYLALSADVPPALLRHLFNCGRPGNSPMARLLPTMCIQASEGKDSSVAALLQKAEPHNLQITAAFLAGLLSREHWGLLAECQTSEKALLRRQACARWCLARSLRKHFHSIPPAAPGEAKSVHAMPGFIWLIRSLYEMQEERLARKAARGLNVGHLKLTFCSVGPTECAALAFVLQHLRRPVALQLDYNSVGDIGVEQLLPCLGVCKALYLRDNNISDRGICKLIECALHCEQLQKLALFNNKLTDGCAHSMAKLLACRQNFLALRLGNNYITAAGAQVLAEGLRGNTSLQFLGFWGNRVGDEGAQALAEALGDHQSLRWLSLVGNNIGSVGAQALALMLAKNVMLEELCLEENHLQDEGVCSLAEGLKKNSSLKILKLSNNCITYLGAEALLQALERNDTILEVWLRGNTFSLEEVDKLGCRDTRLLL

[17] = tested on: HEK293; test: NOD2 signaling inhibitors in MDP-stimulated cells, cell-based, uHTS, luminescence (AID 2001); format: functional; conditions: Homo sapiens
[18] = tested on: HEK293; test: cells; format: functional, cell-based; conditions: Homo sapiens; remark: listed apart in the source
[19] = microbe, parasite or virus in culture; format: functional; conditions: Mycobacterium tuberculosis
[20] = target: T6, Replicative DNA helicase DnaB (Mycobacterium tuberculosis, UniProt P9WMR3); test: DnaB intein splicing inhibitors, dose response, biochemical, cell-free fluorescence (AID 449749); format: functional
T6 sequence (P9WMR3 whole entry): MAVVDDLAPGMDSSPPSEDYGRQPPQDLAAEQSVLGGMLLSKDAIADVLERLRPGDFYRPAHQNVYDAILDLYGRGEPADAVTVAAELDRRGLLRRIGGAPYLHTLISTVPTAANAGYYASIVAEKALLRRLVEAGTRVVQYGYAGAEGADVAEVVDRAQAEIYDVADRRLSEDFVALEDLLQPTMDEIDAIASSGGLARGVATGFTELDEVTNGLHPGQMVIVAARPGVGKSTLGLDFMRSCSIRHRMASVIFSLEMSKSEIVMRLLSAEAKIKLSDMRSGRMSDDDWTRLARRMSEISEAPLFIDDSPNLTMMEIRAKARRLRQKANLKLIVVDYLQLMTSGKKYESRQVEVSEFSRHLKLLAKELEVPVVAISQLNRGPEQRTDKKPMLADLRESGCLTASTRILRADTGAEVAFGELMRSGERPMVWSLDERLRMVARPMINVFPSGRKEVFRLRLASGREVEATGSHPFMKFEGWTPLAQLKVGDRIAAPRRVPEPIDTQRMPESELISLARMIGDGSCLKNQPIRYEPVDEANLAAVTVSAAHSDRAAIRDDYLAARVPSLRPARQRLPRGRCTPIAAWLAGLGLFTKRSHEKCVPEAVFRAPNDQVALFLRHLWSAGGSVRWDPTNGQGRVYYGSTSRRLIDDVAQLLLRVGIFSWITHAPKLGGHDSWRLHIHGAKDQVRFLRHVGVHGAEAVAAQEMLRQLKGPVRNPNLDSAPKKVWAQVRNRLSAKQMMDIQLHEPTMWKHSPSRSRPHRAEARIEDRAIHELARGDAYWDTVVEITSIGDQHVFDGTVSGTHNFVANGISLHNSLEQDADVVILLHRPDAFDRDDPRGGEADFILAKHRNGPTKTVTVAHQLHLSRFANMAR

[21] = target: T7, Protein RecA (Mycobacterium tuberculosis, UniProt P9WHJ3); test: Fluorescence Cell-Free Homogeneous Dose Retest to Identify Inhibitors of RecA-Intein Splicing Activity. [Related pubchem assays (depositor defined):AID2097, AID2223, AID489010, AID492950]; format: functional
T7 sequence (P9WHJ3 whole entry): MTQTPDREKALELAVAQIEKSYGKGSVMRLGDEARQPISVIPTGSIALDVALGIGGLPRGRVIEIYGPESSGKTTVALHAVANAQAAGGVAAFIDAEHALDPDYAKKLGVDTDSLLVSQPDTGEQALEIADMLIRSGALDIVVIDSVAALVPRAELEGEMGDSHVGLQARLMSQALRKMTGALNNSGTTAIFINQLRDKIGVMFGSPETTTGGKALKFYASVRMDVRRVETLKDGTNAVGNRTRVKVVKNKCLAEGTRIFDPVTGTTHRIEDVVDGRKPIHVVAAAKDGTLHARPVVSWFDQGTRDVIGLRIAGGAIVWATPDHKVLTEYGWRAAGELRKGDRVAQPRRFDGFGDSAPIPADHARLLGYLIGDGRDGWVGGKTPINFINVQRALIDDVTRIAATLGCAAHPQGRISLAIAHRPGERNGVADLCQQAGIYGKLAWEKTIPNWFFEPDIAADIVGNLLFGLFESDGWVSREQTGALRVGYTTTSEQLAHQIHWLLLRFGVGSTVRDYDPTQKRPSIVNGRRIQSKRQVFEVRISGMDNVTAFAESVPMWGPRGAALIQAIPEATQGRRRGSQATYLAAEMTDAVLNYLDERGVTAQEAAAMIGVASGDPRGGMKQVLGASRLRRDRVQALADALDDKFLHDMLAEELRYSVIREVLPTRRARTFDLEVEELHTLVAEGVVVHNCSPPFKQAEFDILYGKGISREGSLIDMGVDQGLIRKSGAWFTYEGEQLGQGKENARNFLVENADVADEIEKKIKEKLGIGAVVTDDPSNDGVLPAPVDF

## O=C(Cc1ncon1)Nc1ccc(F)c(F)c1F
[1]
  EC50: > 55.7 µM (not active)
[2]
  EC50: > 55.7 µM (not active)

## S=c1nc(-c2ccccc2)n(-c2ccccc2)[nH]1
[3]
  IC50: > 100 µM (inactive)
[4]
  IC50: 7.02 µM (active)

## O=S(=O)(c1ccc(-c2csc(Nc3ccc(F)cc3)n2)cc1)N1CCCC1
[5]
  AC50: 19.8 µM (active)
[6]
  IC50: 15.2 µM (active)

## Cc1cc(-c2nnc(S)n2/N=C/c2cccs2)[nH]n1
[7]
  IC50: 55 µM (active)
[3]
  IC50: > 100 µM (inactive)
[4]
  IC50: 2.9 µM (active)
[8]
  IC50: 87.8 µM (active)

## CC(C)(C)NS(=O)(=O)c1cccc2nsnc12
[1]
  EC50: > 55.7 µM (not active)
[2]
  EC50: > 55.7 µM (not active)

## CC(OC(=O)c1ccc(NC(=O)CC#N)cc1)C(=O)Nc1ccc(Oc2ccccc2)cc1 (configuration not stated)
[9]
  IC50: 8.36 µM (active)
[10]
  IC50: > 50 µM (inactive)
[11]
  IC50: > 66.6 µM (inactive)
[12]
  IC50: 17.1 µM (active)

## CC(=O)Nc1ccc(NC(=O)Nc2cc(C)cc(C)c2)cc1
[1]
  EC50: > 55.7 µM (not active)
[2]
  EC50: > 55.7 µM (not active)

## COc1ccc(-n2nc3c(c2NC(=O)CCl)CSC3)cc1
[13]
  EC50: 13.1 µM (active)
[14]
  IC50: 7.89 µM (active)
[15]
  IC50: > 20 µM (inactive)
[16]
  EC50: > 20 µM (inactive)
[17]
  IC50: 14.8 µM (inactive)
[18]
  IC50: > 20 µM (inactive)
[19]
  CC50: 18 µM (active)
[20]
  AC50: 13.6 µM (active)
[21]
  EC50: > 380 µM (inconclusive)
